Data: BigSolDB 2.1

O=C(Oc1ccccc1)c1ccccc1O
solubility (mole fraction)
Details | in ethanol | in isobutanol | in isopropanol | in methanol | in n-butanol | in n-propanol | in sec-butanol
283.15 K | 0.0226 | 0.0185 | 0.0169 | 0.0162 | 0.0337 | 0.0272 | 0.0381
288.15 K | 0.0361 | 0.0288 | 0.0273 | 0.0251 | 0.0511 | 0.043 | 0.0602
293.15 K | 0.0647 | 0.0517 | 0.0487 | 0.0459 | 0.0908 | 0.0756 | 0.105
298.15 K | 0.127 | 0.112 | 0.101 | 0.0946 | 0.182 | 0.152 | 0.201
303.15 K | 0.289 | 0.279 | 0.275 | 0.274 | 0.34 | 0.33 | 0.398
308.15 K | 0.715 | 0.709 | 0.702 | 0.694 | 0.75 | 0.718 | 0.752
